Measurements taken from ChEMBL document CHEMBL2375312, “Novel and highly potent histamine H3 receptor ligands. Part 3: an alcohol function to improve the pharmacokinetic profile” (Bioorg Med Chem Lett, 2013).
pIC50, pKi: −log10 of the molar value.

What was measured:
[1] = Cmax in Swiss mouse brain; type: ADME, tissue-based
[2] = AUC in Swiss mouse brain; type: ADME, organism-based
[3] = Tmax in Swiss mouse brain; type: ADME, tissue-based
Mus musculus [4] = assay: Inverse agonist activity at histamine H3 receptor in po dosed Swiss mouse assessed as release of N-tele-methylhistamine in brain after 90 mins by enzyme-immunoassay; type: functional; details: 1.5 h
[5] = Half life in Swiss mouse plasma; type: ADME
[6] = Cmax in Swiss mouse plasma; type: ADME
[7] = AUC in Swiss mouse plasma; type: ADME
[8] = Tmax in Swiss mouse plasma; type: ADME
[9] = Half life in Swiss mouse brain; type: ADME, tissue-based
[10] = Half life of the compound; type: physicochemical
Histamine H3 receptor [11] = target: Histamine H3 receptor (Homo sapiens, UniProt Q9Y5N1); assay: Displacement of [125I]-iodoproxyfan from human recombinant histamine H3 receptor expressed in HEK293 cells after 1 hr by gamma counting analysis; type: cell-based
Chain of Histamine H3 receptor (Homo sapiens, UniProt Q9Y5N1) (Q9Y5N1 whole entry): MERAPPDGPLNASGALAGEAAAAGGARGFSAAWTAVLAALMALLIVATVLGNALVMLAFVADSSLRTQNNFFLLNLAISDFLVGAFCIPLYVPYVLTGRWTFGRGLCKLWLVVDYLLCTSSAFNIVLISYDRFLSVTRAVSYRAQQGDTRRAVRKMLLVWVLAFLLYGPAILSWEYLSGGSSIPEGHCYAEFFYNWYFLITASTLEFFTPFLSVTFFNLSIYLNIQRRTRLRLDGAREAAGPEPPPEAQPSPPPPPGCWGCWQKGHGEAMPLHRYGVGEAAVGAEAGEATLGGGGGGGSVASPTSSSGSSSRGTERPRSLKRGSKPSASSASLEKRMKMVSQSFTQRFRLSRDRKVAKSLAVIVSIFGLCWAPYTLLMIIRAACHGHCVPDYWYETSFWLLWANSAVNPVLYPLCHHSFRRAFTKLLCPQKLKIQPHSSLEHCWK

[12] = target: Voltage-gated inwardly rectifying potassium channel KCNH2 (Homo sapiens, UniProt Q12809); assay: Binding affinity to human ERG
Chain of Voltage-gated inwardly rectifying potassium channel KCNH2 (Q12809 whole entry): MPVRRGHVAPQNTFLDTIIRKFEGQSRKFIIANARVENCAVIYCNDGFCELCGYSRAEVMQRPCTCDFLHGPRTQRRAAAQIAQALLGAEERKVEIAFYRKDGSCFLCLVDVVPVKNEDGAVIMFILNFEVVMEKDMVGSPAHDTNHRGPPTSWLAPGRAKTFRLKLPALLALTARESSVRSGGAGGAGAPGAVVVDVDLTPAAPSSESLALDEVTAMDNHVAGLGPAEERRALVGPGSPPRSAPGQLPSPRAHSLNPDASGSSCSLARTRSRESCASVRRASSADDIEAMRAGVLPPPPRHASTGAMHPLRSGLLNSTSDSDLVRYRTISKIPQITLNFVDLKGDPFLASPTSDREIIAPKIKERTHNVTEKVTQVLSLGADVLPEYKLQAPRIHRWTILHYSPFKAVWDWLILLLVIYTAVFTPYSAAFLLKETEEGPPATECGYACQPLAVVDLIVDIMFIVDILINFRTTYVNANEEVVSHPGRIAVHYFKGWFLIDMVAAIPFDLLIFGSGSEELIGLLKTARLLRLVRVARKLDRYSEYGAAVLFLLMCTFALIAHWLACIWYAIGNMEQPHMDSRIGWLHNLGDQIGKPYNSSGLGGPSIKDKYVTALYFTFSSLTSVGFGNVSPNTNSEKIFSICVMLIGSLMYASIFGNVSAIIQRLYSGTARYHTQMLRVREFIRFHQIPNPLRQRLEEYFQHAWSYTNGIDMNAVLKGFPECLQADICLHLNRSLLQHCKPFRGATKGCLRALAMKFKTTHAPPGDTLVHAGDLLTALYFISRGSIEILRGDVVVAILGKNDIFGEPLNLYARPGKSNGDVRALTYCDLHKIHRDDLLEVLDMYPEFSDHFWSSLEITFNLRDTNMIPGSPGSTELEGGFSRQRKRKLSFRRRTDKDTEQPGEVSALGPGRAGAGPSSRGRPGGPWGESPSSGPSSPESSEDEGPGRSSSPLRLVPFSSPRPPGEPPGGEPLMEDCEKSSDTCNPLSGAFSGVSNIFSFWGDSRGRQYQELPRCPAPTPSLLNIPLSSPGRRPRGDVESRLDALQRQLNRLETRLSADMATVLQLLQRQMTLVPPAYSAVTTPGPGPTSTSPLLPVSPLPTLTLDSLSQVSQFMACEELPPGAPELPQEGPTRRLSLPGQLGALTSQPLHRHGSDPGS

Histamine H3 receptor [13] = target: Histamine H3 receptor (Mus musculus, UniProt P58406); assay: Displacement of [125I]-iodoproxyfan from histamine H3 receptor in mouse brain cortex after 1 hr by gamma counting analysis; type: tissue-based
Chain of Histamine H3 receptor (Mus musculus, UniProt P58406) (P58406 whole entry): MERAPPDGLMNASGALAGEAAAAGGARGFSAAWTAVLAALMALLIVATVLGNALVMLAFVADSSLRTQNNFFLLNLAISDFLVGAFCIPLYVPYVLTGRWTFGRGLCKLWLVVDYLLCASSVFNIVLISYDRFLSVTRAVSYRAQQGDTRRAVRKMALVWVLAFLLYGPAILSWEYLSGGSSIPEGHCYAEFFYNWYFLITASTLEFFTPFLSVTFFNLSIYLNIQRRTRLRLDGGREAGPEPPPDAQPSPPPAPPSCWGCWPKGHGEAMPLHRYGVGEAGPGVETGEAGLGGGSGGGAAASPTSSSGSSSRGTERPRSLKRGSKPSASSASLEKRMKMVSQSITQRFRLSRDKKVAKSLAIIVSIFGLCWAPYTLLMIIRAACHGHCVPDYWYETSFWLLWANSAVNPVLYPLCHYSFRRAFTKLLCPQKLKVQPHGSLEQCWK

[14] = AUC (0 to 8 hrs) in Swiss mouse brain at 10 mg/kg, po by […] analysis; type: ADME, organism-based; parameters: time < 8 hr, dose 10 mg/kg, route oral
[15] = AUC (0 to 8 hrs) in Swiss mouse plasma at 10 mg/kg, po by […] analysis; type: ADME, organism-based; parameters: time < 8 hr, dose 10 mg/kg, route oral
Cytochrome P450 2C9 = Cytochrome P450 2C9 (Homo sapiens, UniProt P11712); assay: Inhibition of human recombinant CYP2C9; type: ADME
Chain of Cytochrome P450 2C9 (P11712 whole entry): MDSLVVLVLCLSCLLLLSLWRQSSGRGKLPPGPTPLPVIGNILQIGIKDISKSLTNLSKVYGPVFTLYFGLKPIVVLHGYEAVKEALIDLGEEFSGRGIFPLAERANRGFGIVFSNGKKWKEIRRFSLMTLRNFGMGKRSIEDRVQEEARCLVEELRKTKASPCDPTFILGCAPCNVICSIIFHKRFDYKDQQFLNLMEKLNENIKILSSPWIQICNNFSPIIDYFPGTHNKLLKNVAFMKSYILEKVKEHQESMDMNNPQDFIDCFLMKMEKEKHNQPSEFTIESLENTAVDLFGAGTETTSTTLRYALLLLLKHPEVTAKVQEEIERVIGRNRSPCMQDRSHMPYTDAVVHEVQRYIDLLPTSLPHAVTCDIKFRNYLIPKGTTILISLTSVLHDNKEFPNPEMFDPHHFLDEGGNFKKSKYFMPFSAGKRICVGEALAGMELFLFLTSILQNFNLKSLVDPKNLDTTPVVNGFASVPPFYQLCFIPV

Cytochrome P450 2D6 = Cytochrome P450 2D6 (Homo sapiens, UniProt P10635); assay: Inhibition of human recombinant CYP2D6; type: ADME
Chain of Cytochrome P450 2D6 (P10635 whole entry): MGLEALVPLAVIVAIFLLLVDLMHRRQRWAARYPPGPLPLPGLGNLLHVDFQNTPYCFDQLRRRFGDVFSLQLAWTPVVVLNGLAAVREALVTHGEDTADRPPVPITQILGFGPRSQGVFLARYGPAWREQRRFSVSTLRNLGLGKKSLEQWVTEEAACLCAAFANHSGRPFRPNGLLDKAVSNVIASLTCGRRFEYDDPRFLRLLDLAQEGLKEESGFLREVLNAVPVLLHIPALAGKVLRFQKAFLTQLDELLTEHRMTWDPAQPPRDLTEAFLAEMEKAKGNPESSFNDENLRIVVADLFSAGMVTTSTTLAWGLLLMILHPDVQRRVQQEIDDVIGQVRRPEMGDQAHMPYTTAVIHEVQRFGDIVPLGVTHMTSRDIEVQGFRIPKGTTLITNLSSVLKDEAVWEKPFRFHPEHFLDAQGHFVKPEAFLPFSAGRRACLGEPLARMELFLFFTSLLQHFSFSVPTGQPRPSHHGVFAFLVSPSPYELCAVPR

Mus musculus [16] = assay: Inverse agonist activity at histamine H3 receptor in po dosed Swiss mouse assessed as release of N-tele-methylhistamine in brain after 90 mins by enzyme-immunoassay relative to ciproxifan; type: functional
Cytochrome P450 3A4 = Cytochrome P450 3A4 (Homo sapiens, UniProt P08684); assay: Inhibition of human recombinant CYP3A4; type: ADME
Chain of Cytochrome P450 3A4 (P08684 whole entry): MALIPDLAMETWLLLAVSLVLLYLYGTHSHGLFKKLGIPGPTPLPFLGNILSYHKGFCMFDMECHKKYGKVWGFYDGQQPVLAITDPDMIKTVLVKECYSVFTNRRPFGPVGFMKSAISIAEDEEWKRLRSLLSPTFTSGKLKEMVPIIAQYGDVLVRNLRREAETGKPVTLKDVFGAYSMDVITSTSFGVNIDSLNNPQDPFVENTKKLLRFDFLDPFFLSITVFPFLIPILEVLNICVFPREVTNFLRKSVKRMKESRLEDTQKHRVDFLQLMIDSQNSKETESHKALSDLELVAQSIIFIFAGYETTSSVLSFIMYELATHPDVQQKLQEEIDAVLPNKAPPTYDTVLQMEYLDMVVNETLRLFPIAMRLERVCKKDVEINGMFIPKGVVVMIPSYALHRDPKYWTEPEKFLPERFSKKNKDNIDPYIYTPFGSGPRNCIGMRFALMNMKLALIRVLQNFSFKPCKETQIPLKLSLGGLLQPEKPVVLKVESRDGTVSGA

**Q.** For `c1cc([C@H]2CC[C@H](N3CCOCC3)CC2)ccc1OCCCN1CCCCC1`, which Cmax [1] is on record?
**A.** 2380 ng/mL

**Q.** What about the AUC [2] of the same molecule?
**A.** 15600 ng·h/mL

**Q.** And the Tmax [3]?
**A.** 1.5 h

**Q.** And the ED50 (Mus musculus [4])?
**A.** 1.3 mg/kg

**Q.** What about the half-life [5] of the same molecule?
**A.** 5 h

**Q.** What about the Cmax [6] of the same molecule?
**A.** 357 ng/mL

**Q.** And the AUC [7]?
**A.** 2110 ng·h/mL

**Q.** What about the Tmax [8] of the same molecule?
**A.** 1.5 h

**Q.** And the half-life [9]?
**A.** > 10 h

**Q.** With `COCCCS(=O)(=O)c1ccc(-c2ccc(CCN3CCC[C@H]3C)cc2)cc1` as the molecule, how does the half-life [10] read?
**A.** 50 h

**Q.** With `OC1(c2ccc(OCCCN3CCCCC3)cc2)CCOCC1` as the molecule, how does the pKi (Histamine H3 receptor [11]) read?
**A.** 8.39

**Q.** With `OC(c1ccc(OCCCN2CCCCC2)cc1)C1CCCCC1` (stereo unspecified) as the molecule, how does the pKi (Histamine H3 receptor [11]) read?
**A.** 8.54

**Q.** With `OC(c1ccc(OCCCN2CCCCC2)cc1)C1CCOCC1` (stereo unspecified) as the molecule, how does the pKi (Histamine H3 receptor [11]) read?
**A.** 7.89

**Q.** With `OCCc1ccc(OCCCN2CCCCC2)cc1` as the molecule, how does the pKi (Histamine H3 receptor [11]) read?
**A.** 7.49

**Q.** With `CC(O)CCc1ccc(OCCCN2CCCCC2)cc1` (stereo unspecified) as the molecule, how does the pKi (Histamine H3 receptor [11]) read?
**A.** 8.48

**Q.** With `CC(C)(O)CCc1ccc(OCCCN2CCCCC2)cc1` as the molecule, how does the pKi (Histamine H3 receptor [11]) read?
**A.** 8.40

**Q.** With `OCC#Cc1ccc(OCCCN2CCCCC2)cc1` as the molecule, how does the pKi (Histamine H3 receptor [11]) read?
**A.** 7.82

**Q.** With `OCCC#Cc1ccc(OCCCN2CCCCC2)cc1` as the molecule, how does the pKi (Histamine H3 receptor [11]) read?
**A.** 7.72

**Q.** With `O[C@H]1CC[C@H](c2ccc(OCCCN3CCCCC3)cc2)CC1` as the molecule, how does the pKi [12] read?
**A.** 5.24

**Q.** What about the pKi (Histamine H3 receptor [13]) of the same molecule?
**A.** 8.16

**Q.** What about the ED50 (Mus musculus [4]) of the same molecule?
**A.** 0.3 mg/kg

**Q.** What about the AUC(0-t) at 8 h [14] of the same molecule?
**A.** 18000 ng·h/mL

**Q.** What about the AUC(0-t) at 8 h [15] of the same molecule?
**A.** 4980 ng·h/mL

**Q.** What about the pIC50 (Cytochrome P450 2C9) of the same molecule?
**A.** 4.39

**Q.** And the pKi (Histamine H3 receptor [11])?
**A.** 8.59

**Q.** What about the pIC50 (Cytochrome P450 2D6) of the same molecule?
**A.** < 4.00

**Q.** What about the Ratio (Mus musculus [16]) of the same molecule?
**A.** 1

**Q.** What about the pIC50 (Cytochrome P450 3A4) of the same molecule?
**A.** 4.52

**Q.** With `OC1CCC(Cc2ccc(OCCCN3CCCCC3)cc2)CC1` (stereo unspecified) as the molecule, how does the pKi (Histamine H3 receptor [13]) read?
**A.** 8.20

**Q.** What about the pKi (Histamine H3 receptor [11]) of the same molecule?
**A.** 8.72

**Q.** With `OCc1ccc(OCCCN2CCCCC2)cc1` as the molecule, how does the pKi (Histamine H3 receptor [11]) read?
**A.** 7.64

**Q.** With `CC(C)(O)c1ccc(OCCCN2CCCCC2)cc1` as the molecule, how does the pKi (Histamine H3 receptor [11]) read?
**A.** 8.17

**Q.** What does the source list for `C=CC(O)c1ccc(OCCCN2CCCCC2)cc1` (stereo unspecified)?
**A.** pKi (Histamine H3 receptor [13]): 7.74; pKi (Histamine H3 receptor [11]): 8.07

**Q.** With `C=CCC(O)c1ccc(OCCCN2CCCCC2)cc1` (stereo unspecified) as the molecule, how does the pKi (Histamine H3 receptor [11]) read?
**A.** 8.16

**Q.** With `CCC(O)(CC)c1ccc(OCCCN2CCCCC2)cc1` as the molecule, how does the pKi (Histamine H3 receptor [13]) read?
**A.** 7.85

**Q.** And the pKi (Histamine H3 receptor [11])?
**A.** 8.85

**Q.** With `CCCC(O)(CCC)c1ccc(OCCCN2CCCCC2)cc1` as the molecule, how does the pKi (Histamine H3 receptor [13]) read?
**A.** 8.60

**Q.** Which results are given for `C=CCC(O)(CC=C)c1ccc(OCCCN2CCCCC2)cc1`?
**A.** pKi (Histamine H3 receptor [13]): 8.37; pKi (Histamine H3 receptor [11]): 9.27

**Q.** With `OC1(c2ccc(OCCCN3CCCCC3)cc2)CCC1` as the molecule, how does the pKi (Histamine H3 receptor [11]) read?
**A.** 7.74

**Q.** With `OC1(c2ccc(OCCCN3CCCCC3)cc2)CCCC1` as the molecule, how does the pKi (Histamine H3 receptor [13]) read?
**A.** 8.12

**Q.** With `OC1(c2ccc(OCCCN3CCCCC3)cc2)CCCCC1` as the molecule, how does the pKi (Histamine H3 receptor [11]) read?
**A.** 8.41

**Q.** With `OC1CCN([C@H]2CC[C@H](c3ccc(OCCCN4CCCCC4)cc3)CC2)CC1` (mixture of isomers) as the molecule, how does the Cmax [1] read?
**A.** 215 ng/mL

**Q.** What about the AUC [2] of the same molecule?
**A.** 1520 ng·h/mL

**Q.** What about the Tmax [3] of the same molecule?
**A.** 3 h

**Q.** What about the half-life [5] of the same molecule?
**A.** 6 h

**Q.** And the Cmax [6]?
**A.** 399 ng/mL

**Q.** And the AUC [7]?
**A.** 1520 ng·h/mL

**Q.** And the Tmax [8]?
**A.** 1.5 h

**Q.** What about the half-life [9] of the same molecule?
**A.** > 10 h
